15 compounds from patent US11339130B1 (Blade Therapeutics, Inc., priority 2016, dated 2022) can be followed below.

Where two headings read alike, the source gives them in different places.

In experiment [1] the test system is Calpain activity in SH-SY5Y cells. The experiment is described as follows: SH-SY5Y + AMC fluorescence assay (Suc-LLVY-AMC substrate). The class given is cell-based. The conditions noted are these: read-out: SH-SY5Y + AMC IC50.
In experiment [2] the target is T1, Human Calpain 2/NS1 (Homo sapiens, UniProt P17655).
T1 sequence (P17655 1-700): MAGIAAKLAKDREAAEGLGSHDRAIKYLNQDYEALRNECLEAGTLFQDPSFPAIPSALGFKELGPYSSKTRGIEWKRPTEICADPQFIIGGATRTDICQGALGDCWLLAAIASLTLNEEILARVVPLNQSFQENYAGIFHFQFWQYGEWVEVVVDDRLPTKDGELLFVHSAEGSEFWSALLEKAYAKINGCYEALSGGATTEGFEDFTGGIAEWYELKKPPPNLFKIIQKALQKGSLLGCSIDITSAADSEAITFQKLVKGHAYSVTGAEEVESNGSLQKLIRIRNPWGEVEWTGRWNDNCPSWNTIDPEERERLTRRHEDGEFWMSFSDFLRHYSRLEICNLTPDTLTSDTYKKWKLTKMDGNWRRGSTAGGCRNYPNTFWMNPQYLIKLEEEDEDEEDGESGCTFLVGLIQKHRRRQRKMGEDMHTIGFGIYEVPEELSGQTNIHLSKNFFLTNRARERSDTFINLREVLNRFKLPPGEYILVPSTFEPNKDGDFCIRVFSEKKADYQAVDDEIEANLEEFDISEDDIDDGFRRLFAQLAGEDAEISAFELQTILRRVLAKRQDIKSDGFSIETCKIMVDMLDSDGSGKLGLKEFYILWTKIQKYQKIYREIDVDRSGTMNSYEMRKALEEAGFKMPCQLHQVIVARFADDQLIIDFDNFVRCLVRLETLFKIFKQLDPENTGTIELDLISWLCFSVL
T1 sequence (P04632 1-268 partner): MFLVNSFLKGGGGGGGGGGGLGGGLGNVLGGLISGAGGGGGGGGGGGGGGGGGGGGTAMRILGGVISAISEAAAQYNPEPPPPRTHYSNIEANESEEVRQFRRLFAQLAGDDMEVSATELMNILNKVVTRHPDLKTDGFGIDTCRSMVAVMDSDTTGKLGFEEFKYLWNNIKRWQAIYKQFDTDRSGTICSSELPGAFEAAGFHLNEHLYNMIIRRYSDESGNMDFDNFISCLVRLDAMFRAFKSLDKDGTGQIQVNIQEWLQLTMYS
The experiment is described as follows: Calpain inhibition continuous fluorescence (FRET) assay, Human Calpain 2/NS1. It counts as biochemical. The conditions noted are these: read-out: Human Calpain 2/NS1 IC50. The procedure, abridged:
(§1)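 Buffer 50 mM Tris pH 7.5/100 mM NaCl/1 mM DTT; enzyme + cpd preinc 25C; start w/ FRET substrate + CaCl2; kinetic 490/520 nm, 10 min; slopes 1-5 min; 4-PL IC50.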

Experiment [3] concerns the target T2, Human Calpain 1/NS1 (Homo sapiens, UniProt P07384).
T2 sequence (P07384 1-714): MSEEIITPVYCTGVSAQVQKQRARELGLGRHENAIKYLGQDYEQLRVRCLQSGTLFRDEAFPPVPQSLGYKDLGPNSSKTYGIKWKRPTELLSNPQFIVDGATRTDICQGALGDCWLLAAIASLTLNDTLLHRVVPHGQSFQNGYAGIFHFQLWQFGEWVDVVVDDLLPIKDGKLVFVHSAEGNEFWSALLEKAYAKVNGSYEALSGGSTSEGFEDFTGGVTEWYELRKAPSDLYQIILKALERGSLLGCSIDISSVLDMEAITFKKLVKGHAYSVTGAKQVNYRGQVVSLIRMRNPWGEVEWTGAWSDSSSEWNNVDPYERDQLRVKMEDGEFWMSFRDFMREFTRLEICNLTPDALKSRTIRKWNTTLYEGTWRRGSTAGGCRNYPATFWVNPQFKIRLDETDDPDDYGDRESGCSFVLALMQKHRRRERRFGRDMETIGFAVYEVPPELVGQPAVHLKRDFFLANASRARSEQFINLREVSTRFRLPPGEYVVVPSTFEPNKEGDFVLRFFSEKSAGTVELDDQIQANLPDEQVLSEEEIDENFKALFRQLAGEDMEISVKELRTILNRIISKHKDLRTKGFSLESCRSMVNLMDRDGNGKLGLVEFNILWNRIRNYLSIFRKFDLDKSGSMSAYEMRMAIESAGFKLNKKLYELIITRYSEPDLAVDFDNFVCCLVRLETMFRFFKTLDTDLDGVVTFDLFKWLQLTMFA
T2 sequence (P04632 1-268 partner): T1 sequence (P04632 1-268 partner)
The experiment is described as follows: Calpain inhibition continuous fluorescence (FRET) assay, Human Calpain 1/NS1. The class given is biochemical. To be noted: read-out: Human Calpain 1/NS1 IC50. The method, boiled down:
as §1

Experiment [4] addresses T3, Human Calpain 9/NS1 (Homo sapiens, UniProt O14815).
T3 sequence (O14815 1-690): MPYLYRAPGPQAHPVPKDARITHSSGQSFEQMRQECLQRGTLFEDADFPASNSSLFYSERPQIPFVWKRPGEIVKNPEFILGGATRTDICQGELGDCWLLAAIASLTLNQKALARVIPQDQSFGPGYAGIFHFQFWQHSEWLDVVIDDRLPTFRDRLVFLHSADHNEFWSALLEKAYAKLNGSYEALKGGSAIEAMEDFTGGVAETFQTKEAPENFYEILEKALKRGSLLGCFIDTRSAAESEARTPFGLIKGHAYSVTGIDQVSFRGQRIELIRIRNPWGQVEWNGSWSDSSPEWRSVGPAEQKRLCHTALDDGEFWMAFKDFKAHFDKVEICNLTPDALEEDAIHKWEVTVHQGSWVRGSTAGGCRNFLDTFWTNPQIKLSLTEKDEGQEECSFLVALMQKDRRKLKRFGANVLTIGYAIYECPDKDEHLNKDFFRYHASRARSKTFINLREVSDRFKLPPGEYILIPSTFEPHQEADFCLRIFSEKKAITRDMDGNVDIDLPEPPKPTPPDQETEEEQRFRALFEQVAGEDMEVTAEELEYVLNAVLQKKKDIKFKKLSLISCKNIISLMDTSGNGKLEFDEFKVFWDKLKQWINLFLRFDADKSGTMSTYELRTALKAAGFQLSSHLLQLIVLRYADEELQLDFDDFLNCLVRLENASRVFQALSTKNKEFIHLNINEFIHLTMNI
T3 sequence (P04632 1-268 partner): T1 sequence (P04632 1-268 partner)
The experiment can be described thus: Calpain inhibition continuous fluorescence (FRET) assay, Human Calpain 9/NS1. The conditions noted are these: read-out: Human Calpain 9/NS1 IC50. It counts as biochemical. The method, boiled down: as §1

In the case of `COCCOCCNC(=O)C(=O)[C@H](Cc1ccccc1)NC(=O)c1cn(C)nc1-c1ccccc1` [Compound 335, (S)—N-(4-((2-(2-methoxyethoxy)ethyl)amino)-3,4-dioxo-1-phenylbutan-2-yl)-1-methyl-3-phenyl-1H-pyrazole-4-carboxamide], the IC50 in experiment [1] was less than 10 µM; in experiment [2] it was less than 3 µM; in experiment [3] it was less than 3 µM; in experiment [4] it was less than 3 µM.
Take `C[C@@H]1C[C@@H](C(=O)NC(Cc2ccccc2)C(=O)C(N)=O)N(c2ccccc2)C1` (stereo partly drawn) [Compound 292, (2S,4R)—N-(4-amino-3,4-dioxo-1-phenylbutan-2-yl)-4-methyl-1-phenylpyrrolidine-2-carboxamide]: the IC50 is greater than 25 µM in experiment [1] (Column E), less than 3 µM in experiment [2] (Column B), less than 3 µM in experiment [3] (Column A) and less than 3 µM in experiment [4] (Column C).
`NC(=O)C(=O)[C@H](Cc1ccccc1)NC(=O)[C@@H]1CCCN1c1ccccc1` [Compound 308, (S)—N—((S)-4-amino-3,4-dioxo-1-phenylbutan-2-yl)-1-phenylpyrrolidine-2-carboxamide]: the IC50 is greater than 25 µM in experiment [1], less than 3 µM in experiment [2], less than 3 µM in experiment [3] and less than 3 µM in experiment [4].
`Cc1cc(C(=O)N[C@@H](Cc2ccccc2)C(=O)C(=O)NC2CC2)n(-c2nc(-c3ccccc3)cs2)n1` [Compound 203, (S)—N-(4-(cyclopropylamino)-3,4-dioxo-1-phenylbutan-2-yl)-3-methyl-1-(4-phenylthiazol-2-yl)-1H-pyrazole-5-carboxamide]: the IC50 in experiment [1] (Column E) is greater than 25 µM; in experiment [2] (Column B) it was less than 3 µM; in experiment [3] (Column A), less than 3 µM; in experiment [4] (Column C), greater than 10 µM.
As for `Cc1ccccc1-c1nc(C(F)(F)F)oc1C(=O)NC(Cc1ccccc1)C(=O)C(N)=O` (stereo not drawn) [Compound 359, N-(4-amino-3,4-dioxo-1-phenylbutan-2-yl)-4-(o-tolyl)-2-(trifluoromethyl)oxazole-5-carboxamide], the IC50 in experiment [1] was 10 to 25 µM; in experiment [2] it was less than 3 µM; in experiment [3], less than 3 µM; in experiment [4], less than 3 µM.
Consider `Cc1cc(C(=O)NC(Cc2ccccc2)C(O)C(N)=O)n(-c2ccnc(Cl)n2)n1` (stereo not drawn) [Compound 434, N-(4-amino-3-hydroxy-4-oxo-1-phenylbutan-2-yl)-1-(2-chloropyrimidin-4-yl)-3-methyl-1H-pyrazole-5-carboxamide], for which the IC50 is greater than 25 µM in experiment [1], greater than 10 µM in experiment [2], greater than 10 µM in experiment [3] and greater than 10 µM in experiment [4].
For `Cc1nc(C(=O)NC(Cc2ccccc2)C(=O)C(N)=O)c(-c2ccccc2)o1` (stereo not drawn) [Compound 494, N-(4-amino-3,4-dioxo-1-phenylbutan-2-yl)-2-methyl-5-phenyloxazole-4-carboxamide], the IC50 is greater than 25 µM in experiment [1], less than 3 µM in experiment [2], less than 3 µM in experiment [3] and less than 3 µM in experiment [4].
Regarding `NC(=O)C(=O)[C@H](Cc1ccccc1)NC(=O)c1cc(Cl)nn1-c1ccccc1` [Compound 281, (S)—N-(4-amino-3,4-dioxo-1-phenylbutan-2-yl)-3-chloro-1-phenyl-1H-pyrazole-5-carboxamide], the IC50 in experiment [1] (Column E) is 10 to 25 µM; in experiment [2] (Column B), less than 3 µM; in experiment [3] (Column A), less than 3 µM; in experiment [4] (Column C) it was less than 3 µM.
In the case of `NC(=O)C(=O)[C@H](Cc1ccccc1)NC(=O)c1cc(C2CC2)nn1-c1ccccc1` [Compound 306, (S)—N-(4-amino-3,4-dioxo-1-phenylbutan-2-yl)-3-cyclopropyl-1-phenyl-1H-pyrazole-5-carboxamide], the IC50 was less than 10 µM in experiment [1], 3 to 10 µM in experiment [2], 3 to 10 µM in experiment [3] and 3 to 10 µM in experiment [4].
On to `Cc1nc(-c2ccccc2)c(C(=O)N[C@@H](Cc2ccccc2)C(=O)C(N)=O)s1` [Compound 25, (S)—N-(4-amino-3,4-dioxo-1-phenylbutan-2-yl)-2-methyl-4-phenylthiazole-5-carboxamide], for which the IC50 is 10 to 25 µM in experiment [1] (Column E), less than 3 µM in experiment [2] (Column B), less than 3 µM in experiment [3] (Column A) and less than 3 µM in experiment [4] (Column C).
On to `COc1ccccc1-c1nn(C)cc1C(=O)NC(Cc1ccccc1)C(=O)C(N)=O` (stereo not drawn) [Compound 511, N-(4-amino-3,4-dioxo-1-phenylbutan-2-yl)-3-(2-methoxyphenyl)-1-methyl-1H-pyrazole-4-carboxamide], for which the IC50 is greater than 25 µM in experiment [1], less than 3 µM in experiment [2], less than 3 µM in experiment [3] and less than 3 µM in experiment [4].
Turning to `Cn1cc(C(=O)NC(C=O)c2ccccc2C(F)(F)F)c(-c2ccccc2F)n1` (stereo not drawn) [Compound 519, 3-(2-Fluorophenyl)-1-METHYL-N-(2-oxo-1-(2-(trifluoromethyl)phenyl)ethyl)-1H-pyrazole-4-carboxamide], the IC50 in experiment [1] was greater than 25 µM; in experiment [2] it was greater than 10 µM; in experiment [3], greater than 10 µM; in experiment [4], greater than 10 µM.
As to `O=C[C@H](Cc1ccccc1)NC(=O)c1scnc1-c1ccccc1` [Compound 6, (S)—N-(1-oxo-3-phenylpropan-2-yl)-4-phenylthiazole-5-carboxamide], the IC50 in experiment [1] (Column E) is greater than 25 µM; in experiment [2] (Column B), less than 3 µM; in experiment [3] (Column A), less than 3 µM; in experiment [4] (Column C) it was less than 3 µM.
Take `Cc1cc(C(=O)N[C@@H](Cc2ccccc2)C(=O)C(N)=O)n(-c2cccc(C(F)(F)F)n2)n1` [Compound 59]: the IC50 in experiment [1] (Column E) is less than 10 µM; in experiment [2] (Column B) it was less than 3 µM; in experiment [3] (Column A) it was less than 3 µM; in experiment [4] (Column C), less than 3 µM.
On to `O=C[C@H](Cc1ccccc1)NC(=O)c1csnc1-c1ccccc1` [Compound 9, (S)—N-(1-oxo-3-phenylpropan-2-yl)-3-phenylisothiazole-4-carboxamide], for which the IC50 is 10 to 25 µM in experiment [1] (Column E), less than 3 µM in experiment [2] (Column B), less than 3 µM in experiment [3] (Column A) and less than 3 µM in experiment [4] (Column C).
